Experimental data as given in US20140004192A1, “PHARMACEUTICAL FORMULATIONS OF INDIBULIN AND USES THEREOF” (Ziopharm Oncology, Inc., priority 2012, published 2014).
Like-named read-outs stand apart in the source and are kept apart here.

Tests used:
[1] = Microcentrifuge dissolution test in model fasted duodenal solution (MFDS); assay type: physicochemical; conditions: dosed at 200 μgA/mL
Protocol: The microcentrifuge dissolution test was performed to assess the ability of the indibulin SDD to sustain solubilized drug levels and to determine suspension stability. Using this method, 10% A HPMCAS-H(HPMCAS high grade), 15% A HPMCAS-H, 20% A HPMCAS-H, 25% A HPMCAS-H, 25% A HPMCAS-M (HPMCAS medium grade) and 50% A HPMCAS-M SDD formulations were tested. Specifically, the microcentrifuge dissolution test measures the supersaturation of drug above the crystalline solubility when dosed into the model fasted duodenal solution (MFDS).
In the microcentrifuge dissolution test, indibulin HPMCAS SDDs were each dosed into MFDS, which is 0.5% taurocholic acid, sodium salt hydrate (NaTC)/1-palmitoyl-2-oleoyl-sn-glycero-3-phosphocholine (POPC) in phosphate buffer solution (PBS, pH 6.5). In each resulted sample, the concentration of dissolved indibulin would have been 200 μg active drug per mL (200 μgA/mL), if all of the indibulin had dissolved. The samples were centrifuged at 13,000 rpm at 37° C. for 1 minute. The supernatant solution of each sample was then analyzed by HPLC. The remaining sample was mixed and allowed to stand undisturbed until next measurement was taken. […]

[2] = Rat pharmacokinetic study, second study (dose response); assay type: in vivo, rats; conditions: plasma, po; for AUC(0-t) / Cmax / Tmax: Second Study; for concentration at 0 h / concentration at 0.5 h / concentration at 1 h / concentration at 2 h / concentration at 4 h / concentration at 6 h / concentration at 10 h: second study, read-out: plasma indibulin
Protocol: The second study was designed to determine the dose response of indibulin plasma concentration with the 10% A SDD formulation. In general, 10% A SDD was administered p.o. at 10, 15 and 20 mg/kg and plasma indibulin concentrations were determined at several time points.
All rats used in the second study were fasted 12 hours prior to dose, and food was returned 4 hours post dose. Indibulin in crystalline form was suspended in 0.5% Methocel A at 10 mg/kg, 15 mg/kg and 20 mg/kg by vortexing and sonicating. The indibulin SDD formulations were made by combining 10% active indibulin SDD at 10 mg/kg, 15 mg/kg and 20 mg/kg in a mortar with 0.5% Methocel A and using a pestle to gradually mix in to solution. There were six rats per group, all animals were weighed and the dose volume calculated so that each rat received the test article orally at a volume of 10 mL/kg. The first three rats in each group were bled at […], 2, and 6 hours post dose; the remaining three rats in each group were bled at 1, 4, and 10 hours post dose. For blood collection at all time points, all animals were anesthetized with an inhalation of 4% isoflurane and 1.5% oxygen; once it was determined that the animal was adequately anesthetized (no reaction to physical stimulation) using a capillary tube the orbital venous plexus was punctured and a volume of 1 mL of blood was collected in to a sodium heparin tube. Once the blood was collected the sodium heparin tube was inverted ten times, and placed on ice until centrifuged for 10 minutes at 2510 rpm. The plasma was decanted into labeled Eppendorfs and stored at −80° C. until analyzed by HPLC with MS/MS Detection. All data were acquired using Applied Biosystems/MDS-Sciex Analyst Version 1.5; processed, and reported using Watson Version 7.3.0.01TM, Thermo Fisher Scientific, Inc.; and are summarized in FIG. 13 and FIG. 14.

[3] = cited from earlier work
Membrane-permeation test = assay type: physicochemical; conditions: feed MFDS, 37° C.
Protocol: The 10% A HPMCAS-H(HPMCAS high grade), 15% A HPMCAS-H, 20% A HPMCAS-H, 25% A HPMCAS-H, 25% A HPMCAS-M (HPMCAS medium grade) and 50% A HPMCAS-M SDD formulations were also evaluated in a membrane-permeation test at 37° C. in a temperature-controlled box. Test procedures were described, for example, in U.S. Pat. No. 7,611,630. For example, a membrane-permeation test of 10% A HPMCAS-H indibulin SDD was performed using the following procedures: • 1. Accurately weigh 1 mgA (10 mg of 10% A:HPMCAS-H SDD) into the outer-glass reservoir of the test apparatus. All samples are prepared in duplicates. • 2. Add 5 mL MFDS and start the timer. • 3. Cap each reservoir and vortex at medium setting for 1 minute. Stir at 100 rpm. • 4. After 9 minutes of addition of MFDS, add 5 mL of 80/20 (wt/wt) […]/Decane permeate to the inside of the membrane cells. • 5. After 1 minute (at 10 minutes) place a cell containing the permeate solution into the outer reservoir holding the feed/drug solution. Take a O-minute time point. Tilt the entire apparatus at a 45° angle to ensure that no air bubbles are trapped under the membrane. • 6. Place apparatus back on stir plate at 100 rpm. • 7. […]
This test assessed the rate of solubilized drug indibulin that passed through a synthetic membrane from aqueous MFDS to an aqueous immiscible organic sink solution. […]

O=C(Nc1ccncc1)C(=O)c1cn(Cc2ccc(Cl)cc2)c2ccccc12 [Bulk Crystalline Drug, indibulin]
AUC90 ([1]; MFDS pH 6.5, first 90 min): 160 µg·min/mL
C90 ([1]; concentration in MFDS at 90 min): 1 µg/mL
C1200 ([1]; concentration in MFDS at 1200 min): 3 µg/mL
Cmax90 ([1]; maximum concentration of indibulin in MFDS pH 6.5, first 90 min): 2000 ng/mL
AUC(0-t) ([2]; rat p.o. 10 mg/kg (60 mg/m^2)): 48 ng·h/mL
Cmax ([2]; rat p.o. 10 mg/kg (60 mg/m^2)): 8.6 ng/mL
Tmax ([2]; rat p.o. 10 mg/kg (60 mg/m^2)): 2 h
AUC(0-t) ([2]; rat p.o. 15 mg/kg (90 mg/m^2)): 146 ng·h/mL
Cmax ([2]; rat p.o. 15 mg/kg (90 mg/m^2)): 24 ng/mL
Tmax ([2]; rat p.o. 15 mg/kg (90 mg/m^2)): 4 h
AUC(0-t) ([2]; rat p.o. 20 mg/kg (120 mg/m^2)): 110 ng·h/mL
Cmax ([2]; rat p.o. 20 mg/kg (120 mg/m^2)): 21 ng/mL
Tmax ([2]; rat p.o. 20 mg/kg (120 mg/m^2)): 4 h
concentration at 0 h ([2]; rat p.o. 10 mg/kg): 0 ng/mL
concentration at 0.5 h ([2]; rat p.o. 10 mg/kg): 2 ng/mL
concentration at 1 h ([2]; rat p.o. 10 mg/kg): 4 ng/mL
concentration at 2 h ([2]; rat p.o. 10 mg/kg): 9 ng/mL
concentration at 4 h ([2]; rat p.o. 10 mg/kg): 4 ng/mL
concentration at 6 h ([2]; rat p.o. 10 mg/kg): 7 ng/mL
concentration at 10 h ([2]; rat p.o. 10 mg/kg): 2 ng/mL
concentration at 0 h ([2]; rat p.o. 15 mg/kg): 0 ng/mL
concentration at 0.5 h ([2]; rat p.o. 15 mg/kg): 10 ng/mL
concentration at 1 h ([2]; rat p.o. 15 mg/kg): 17 ng/mL
concentration at 2 h ([2]; rat p.o. 15 mg/kg): 17 ng/mL
concentration at 4 h ([2]; rat p.o. 15 mg/kg): 24 ng/mL
concentration at 6 h ([2]; rat p.o. 15 mg/kg): 7 ng/mL
concentration at 10 h ([2]; rat p.o. 15 mg/kg): 19 ng/mL
concentration at 0 h ([2]; rat p.o. 20 mg/kg): 0 ng/mL
concentration at 0.5 h ([2]; rat p.o. 20 mg/kg): 9 ng/mL
concentration at 1 h ([2]; rat p.o. 20 mg/kg): 12 ng/mL
concentration at 2 h ([2]; rat p.o. 20 mg/kg): 14 ng/mL
concentration at 4 h ([2]; rat p.o. 20 mg/kg): 21 ng/mL
concentration at 6 h ([2]; rat p.o. 20 mg/kg): 7 ng/mL
concentration at 10 h ([2]; rat p.o. 20 mg/kg): 6 ng/mL
solubility in water, methanol, ethanol or 2-propanol [3]: practically insoluble
Average Flux (Membrane-permeation test): 0.10 μgA/cm^2 × min
